Results as given in article PMC9926234, “Iterative computational design and crystallographic screening identifies potent inhibitors targeting the Nsp3 macrodomain of SARS-CoV-2” (Proceedings of the National Academy of Sciences of the …, 2023).
Several values for one entry are separate records, joined by “and”; a condition that tells them apart may be missing. Equal entries are not always repeated. Where two headings read alike, the source gives them in different places.

Target: SARS-CoV-2 NSP3 Mac1 (Severe acute respiratory syndrome coronavirus 2, UniProt P0DTD1)
Type: binding
Conditions: for Refined occupancy: ligand occupancy after refinement (phenix.refine)
[1] = PanDDA 1-BDC (background density correction) of the event, crystal soak 100 mM, PanDDA run dmso_34
[2] = PanDDA event map, 1 minus background density correction, crystal soaking of Mac1
[3] = crystal soak, compound concentration 100 mM, PanDDA run dmso_34, series docking_lead-like_1
[4] = ligand modeled in the crystal structure, crystal soak 100 mM, PanDDA run dmso_34
[5] = PanDDA event map, crystal soak, Compound_concentration 100 mM, Echo_dispense_volume 40 nl
[6] = crystal soak, Compound_concentration 100 mM, Echo_dispense_volume 40 nl, PanDDA run (background map) dmso_34, nohits_35 or nohits_62
[7] = ligand modeled, crystal soak, Compound_concentration 100 mM, Echo_dispense_volume 40 nl
[8] = PanDDA event map 1-BDC, crystal soak, Compound_concentration 100 mM, PanDDA run dmso_34 or nohits_35 per dataset
[9] = crystal soak, Compound_concentration 100 mM, Echo dispense 40 nl, PanDDA run dmso_34 or nohits_35 per dataset
[10] = PanDDA event map background density correction, crystal soak, compound concentration 100 mM
[11] = ligand modeled in the crystal structure, crystal soak, compound concentration 100 mM
[12] = PanDDA 1-BDC of the event, compound stock 100 mM, Echo dispense volume 80 nl
[13] = crystal soak, compound stock 100 mM, Echo dispense volume 80 nl
[14] = ligand modeled from this dataset, compound concentration 100 mM
[15] = ligand modeled in structure, compound stock 100 mM, Echo dispense volume 80 nl

SMILES | Refined occupancy (crystal soaking of Mac1) | 1-BDC (PanDDA) [2] | 1-BDC [5] | PanDDA hit? [6] | Modeled? [7] | other results
c1csc(CC2CCN(c3ncnc4[nH]ccc34)C2)n1 (centres unmarked) [Compound Z6891] | 60 | – | – | – | – | 1-BDC [1]: 0.3; 1-BDC [2]: 0.3; PanDDA hit? [3]: TRUE; Modeled? [4]: TRUE
CC(=O)Nc1nc(C)c(S(=O)(=O)Nc2ccc(C)c(C#N)c2)s1 [Compound Z6707] | 46 | 0.23 | 0.23 | TRUE | TRUE | –
CC(C)c1noc(CCc2nc(-c3ccnc4[nH]ccc34)no2)n1 [Compound Z1347] | – | – | – | – | – | 1-BDC [1]: 0.03; PanDDA hit? [3]: TRUE
Cc1oc(=O)oc1CSc1ncnc2[nH]cnc12 [Compound Z7450] | 25 | – | – | – | – | 1-BDC [1]: 0.23; 1-BDC [2]: 0.23; PanDDA hit? [3]: TRUE; Modeled? [4]: TRUE
O=C(Nc1ccc(C(=O)N[C@H]2c3cccc(O)c3C[C@H]2C(=O)O)cc1)NC1CC1 [Compound Z9050] | 54 | 0.27 | – | – | – | 1-BDC [8]: 0.21 and 0.27; PanDDA hit? [9]: TRUE; Modeled? (ligand modeled in this dataset, crystal soak, Compound_concentration 100 mM): TRUE
O=C(O)Cc1ccc(CNC(=O)c2ccnc3ccsc23)cc1 [Compound Z6625] | 24 | 0.12 | 0.12 | TRUE | TRUE | –
Cn1ncc2ncnc(NS(=O)(=O)Cc3ccc(CC#N)cc3)c21 [Compound Z6742] | 62 | 0.31 | – | – | – | 1-BDC [10]: 0.31; Modeled? [11]: TRUE
Cc1oc(CNc2ncnc3[nH]c4ccccc4c23)cc1C(=O)O [Compound Z3124] | 18 | 0.09 | – | – | – | 1-BDC [10]: 0.09; Modeled? [11]: TRUE
O=C(O)CC(NC(=O)c1cc(F)cc2[nH]cnc12)c1ccc(Br)cc1 (centres unmarked) [Compound Z3722] | 40 | 0.29 | 0.29 | TRUE | TRUE | –
O=C(O)C(F)(F)F.O=C(O)C1CN(c2ncnc3[nH]c4ccccc4c23)CC12CCC2 (centres unmarked) [Compound Z4706] | 28 | 0.14 | 0.14 | TRUE | TRUE | 1-BDC [12]: 0.21; 1-BDC [8]: 0.17; PanDDA hit? [9]: TRUE; PanDDA hit? [13]: TRUE
Cc1oc(C(N)=O)cc1S(=O)(=O)Nc1cnc(Cl)c(C#N)c1 [Compound Z6746] | 32 | 0.16 | – | – | – | 1-BDC [10]: 0.16; Modeled? [11]: TRUE
O=C(Nc1ccc(C(=O)NC2c3cccc(O)c3CC2C(=O)O)cn1)NC1CC1 (centres unmarked) [Compound Z8539_0054] | 28 | – | – | – | – | 1-BDC [2]: 0.14; Modeled? [14]: TRUE
OCC1CN(c2ncnc3[nH]c4cc(F)ccc4c23)CC2(CCC2)O1 (centres unmarked) [LL123_0025] | 14 | 0.07 | 0.07 | TRUE | TRUE | 1-BDC [12]: 0.1; 1-BDC [8]: 0.09; PanDDA hit? [9]: TRUE; PanDDA hit? [13]: TRUE; HIT* (true hit = binding in crystallographic soaking or the HTRF-based binding assay): Y
O=C(O)CC1CCN(c2ncnc3[nH]c4ccccc4c23)CCC1(F)F (centres unmarked) [Compound Z6423] | – | – | – | – | – | 1-BDC [8]: 0.07; PanDDA hit? [9]: TRUE
CC(Cc1ccco1)C(=O)N[C@@H](CC(=O)O)c1ccc2c(c1)OCO2 (some centres unmarked) [Compound Z1877] | 30 | 0.15 | – | – | – | 1-BDC [10]: 0.15; Modeled? [11]: TRUE
O=C(O)CC1CC(CNC(=O)c2cncc3sccc23)C1 (centres unmarked) [Compound Z1558] | 48 | 0.24 | 0.24 | TRUE | TRUE | Comment (ligand modelled in the crystal structure) (what was observed in density instead of the vendor structure): C4 substituted thiophene
COC(=O)C1(CO)CCN(c2ncnc3[nH]c4cc(F)ccc4c23)C1 (centres unmarked) [Compound Z9556] | 20 | 0.1 | – | – | – | 1-BDC [12]: 0.1; PanDDA hit? [13]: TRUE; Modeled? [15]: TRUE
CC(F)(F)c1cncc(C(=O)NC(Cc2cncc(Br)c2)C(=O)O)c1 (centres unmarked) [Compound Z3140] | 20 | 0.1 | – | – | – | 1-BDC [10]: 0.1; Modeled? [11]: TRUE
Nc1ncnc2c1ncn2CCCc1ccsc1 [Compound Z5972] | – | – | – | – | – | 1-BDC [1]: 0.16; PanDDA hit? [3]: TRUE
O=C(O)c1ccc(F)c(CNC(=O)c2ccc3[nH]ccc3c2)c1 [Compound Z7647] | 18 | 0.09 | 0.09 | TRUE | TRUE | –
O=C1OCCN1C1CCN(c2ncnc3[nH]c4cc(F)ccc4c23)C1 (centres unmarked) [Compound Z5107] | 12 | 0.06 | 0.06 | TRUE | TRUE | 1-BDC [12]: 0.09; 1-BDC [8]: 0.06; PanDDA hit? [9]: TRUE; PanDDA hit? [13]: TRUE
COc1cncc(C(=O)NCCNC(=O)c2ncccc2O)c1 [Compound Z6634] | 28 | 0.14 | 0.14 | TRUE | TRUE | –
CNc1cc(-c2noc(CN3CCCC3=O)n2)ncn1 [Compound Z6028] | – | – | – | – | – | 1-BDC [1]: 0.05; PanDDA hit? [3]: TRUE
O=C(NS(=O)(=O)Cc1ccc(Br)c(F)c1)c1cnn2ccccc12 [Compound Z3209] | 76 | 0.38 | 0.38 | TRUE | TRUE | –
Cc1oc(C(N)=O)cc1S(=O)(=O)Nc1ccc(Br)c(C#N)c1 [Compound Z6708] | 52 | 0.26 | – | – | – | 1-BDC [10]: 0.26; Modeled? [11]: TRUE
CO[C@@H]1CN(c2ncnc3[nH]c4cc(F)ccc4c23)C[C@@H](CO)O1 [Compound Z8973] | 60 | 0.23 | 0.23 | TRUE | TRUE | 1-BDC [12]: 0.25; 1-BDC [8]: 0.23; PanDDA hit? [9]: TRUE; PanDDA hit? [13]: TRUE
O=C(NC1c2cccc(O)c2CC1C(=O)O)c1ccc(Nc2cccnc2)cc1 (centres unmarked) [Compound Z8539_0018] | 20 | 0.1 | – | – | – | Modeled? [14]: TRUE
OCc1cn(C2CCCN(c3ncnc4[nH]ccc34)C2)nn1 (centres unmarked) [Compound Z7864] | 10 | – | – | – | – | 1-BDC [1]: 0.05; 1-BDC [2]: 0.05; PanDDA hit? [3]: TRUE; Modeled? [4]: TRUE
O=C(O)[C@@H]1[C@@H]2CCN(c3ncnc4[nH]c5cc(F)ccc5c34)C[C@@H]21 [LL114_0037] | 34 | 0.17 | – | – | – | 1-BDC [12]: 0.17; 1-BDC [8]: 0.17; PanDDA hit? [9]: TRUE; PanDDA hit? [13]: TRUE; Modeled? [15]: TRUE
